Test results taken from PubChem BioAssay (NCI).
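Briefly, cells in 96-well plates were exposed to five compound concentrations for 48 h, and endpoints were estimated by linear interpolation. GI50 marks 50% less growth. TGI: concentration producing complete growth inhibition.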

Columns and labels:
Experiment in all cases: NCI anticancer screen, dose series, 48 h
[1] = test system: 786-0 renal
[2] = test system: A549 NSCLC
[3] = test system: ACHN renal
[4] = test system: BT-549 breast
[5] = test system: CAKI-1 renal
[6] = test system: CCRF-CEM leukemia
[7] = test system: COLO 205 colon
[8] = test system: EKVX NSCLC
[9] = test system: HCC-2998 colon
[10] = test system: HCT-116 colon
[11] = test system: HCT-15 colon
[12] = test system: HOP-62 NSCLC
[13] = test system: HOP-92 NSCLC
[14] = test system: HS 578T breast
[15] = test system: HT29 colon
[16] = test system: IGROV1 ovarian
[17] = test system: K-562 leukemia
[18] = test system: KM12 colon
[19] = test system: LOX IMVI melanoma
[20] = test system: M14 melanoma
[21] = test system: MALME-3M melanoma
[22] = test system: MCF7 breast
[23] = test system: MDA-MB-231 breast
[24] = test system: MDA-MB-435
[25] = test system: MDA-N
[26] = test system: MOLT-4 leukemia
[27] = test system: NCI-H226 lung
[28] = test system: NCI-H23 lung
[29] = test system: NCI-H460 lung
[30] = test system: NCI-H522 lung
[31] = test system: NCI/ADR-RES ovarian
[32] = test system: OVCAR-3 ovarian
[33] = test system: OVCAR-4 ovarian
[34] = test system: OVCAR-5 ovarian
[35] = test system: OVCAR-8 ovarian
[36] = test system: PC-3 prostate
[37] = test system: RXF 393 renal
[38] = test system: SF-268 CNS
[39] = test system: SF-295 CNS
[40] = test system: SF-539 CNS
[41] = test system: SK-MEL-28 melanoma
[42] = test system: SK-MEL-5 melanoma
[43] = test system: SK-OV-3 ovarian
[44] = test system: SN12C renal
[45] = test system: SNB-19 CNS
[46] = test system: SNB-75 CNS
[47] = test system: SR leukemia
[48] = test system: SW-620 colon
[49] = test system: TK-10 renal
[50] = test system: U251 CNS
[51] = test system: UACC-257 melanoma
[52] = test system: UACC-62 melanoma
[53] = test system: UO-31 renal
[54] = test system: A498 renal
[55] = test system: DU-145 prostate
[56] = test system: HL-60(TB) leukemia
[57] = test system: RPMI-8226 leukemia
[58] = test system: SK-MEL-2 melanoma
[59] = test system: T-47D breast

In the case of O=C(CN(C(=O)OC12CC3CC(CC(C3)C1)C2)C(=O)OC12CC3CC(CC(C3)C1)C2)Oc1ccc([N+](=O)[O-])cc1, the TGI [1] is reported as over 100 µM, the TGI [2] is reported as over 100 µM and the TGI [3] is reported as over 100 µM. For the same compound, the TGI [4] was over 100 µM, the TGI [5] was over 100 µM and the TGI [6] was over 100 µM. For the same compound, the TGI [7] was over 100 µM, the TGI [8] was over 100 µM and the TGI [9] was over 100 µM. It also gave a TGI [10] of over 100 µM, a TGI [11] of over 100 µM and a TGI [12] of over 100 µM. It also gave a TGI [13] of over 100 µM, a TGI [14] of over 100 µM and a TGI [15] of over 100 µM. It also gave a TGI [16] of over 100 µM, a TGI [17] of over 100 µM and a TGI [18] of over 100 µM. The TGI [19] was over 100 µM, the TGI [20] was over 100 µM and the TGI [21] was over 100 µM. For the same compound, the TGI [22] was over 100 µM, the TGI [23] was over 100 µM and the TGI [24] was over 100 µM. The TGI [25] was over 100 µM, the TGI [26] was over 100 µM and the TGI [27] was over 100 µM. It also gave a TGI [28] of over 100 µM, a TGI [29] of over 100 µM and a TGI [30] of over 100 µM. The TGI [31] was over 100 µM, the TGI [32] was over 100 µM and the TGI [33] was over 100 µM. It also gave a TGI [34] of over 100 µM, a TGI [35] of over 100 µM and a TGI [36] of over 100 µM. For the same compound, the TGI [37] was over 100 µM, the TGI [38] was over 100 µM and the TGI [39] was over 100 µM. For the same compound, the TGI [40] was over 100 µM, the TGI [41] was over 100 µM and the TGI [42] was over 100 µM. For the same compound, the TGI [43] was over 100 µM, the TGI [44] was over 100 µM and the TGI [45] was over 100 µM. The TGI [46] was over 100 µM, the TGI [47] was over 100 µM and the TGI [48] was over 100 µM. For the same compound, the TGI [49] was over 100 µM, the TGI [50] was over 100 µM and the TGI [51] was over 100 µM. The TGI [52] was over 100 µM and the TGI [53] was over 100 µM.

In the case of COC(=O)c1c(C(=O)OC)c2ccccn2c1-c1cc(OC)c(Br)c(=O)o1, the TGI [1] is reported as over 100 µM, the TGI [54] is reported as over 100 µM and the TGI [2] is reported as over 100 µM. The TGI [3] was over 100 µM, the TGI [6] was over 100 µM and the TGI [7] was over 100 µM. For the same compound, the TGI [55] was over 100 µM, the TGI [8] was over 100 µM and the TGI [9] was over 100 µM. It also gave a TGI [10] of over 100 µM, a TGI [11] of over 100 µM and a TGI [56] of over 100 µM. For the same compound, the TGI [12] was over 100 µM, the TGI [14] was over 100 µM and the TGI [15] was over 100 µM. For the same compound, the TGI [16] was over 100 µM, the TGI [17] was over 100 µM and the TGI [18] was over 100 µM. For the same compound, the TGI [19] was over 100 µM, the TGI [20] was over 100 µM and the TGI [21] was over 100 µM. The TGI [23] was over 100 µM, the TGI [24] was over 100 µM and the TGI [25] was over 100 µM. It also gave a TGI [26] of over 100 µM, a TGI [27] of over 100 µM and a TGI [28] of over 100 µM. For the same compound, the TGI [29] was over 100 µM, the TGI [30] was over 100 µM and the TGI [31] was over 100 µM. The TGI [32] was over 100 µM, the TGI [33] was over 100 µM and the TGI [34] was over 100 µM. It also gave a TGI [35] of over 100 µM, a TGI [36] of over 100 µM and a TGI [57] of over 100 µM. The TGI [37] was over 100 µM, the TGI [38] was over 100 µM and the TGI [39] was over 100 µM. It also gave a TGI [40] of over 100 µM, a TGI [58] of over 100 µM and a TGI [41] of over 100 µM. The TGI [42] was over 100 µM, the TGI [43] was over 100 µM and the TGI [44] was over 100 µM. The TGI [45] was over 100 µM, the TGI [46] was 66.3 µM and the TGI [47] was over 100 µM. It also gave a TGI [48] of over 100 µM, a TGI [59] of over 100 µM and a TGI [49] of over 100 µM. For the same compound, the TGI [51] was over 100 µM, the TGI [52] was over 100 µM and the TGI [53] was over 100 µM.

In the case of O=c1oc2ccc(I)cc2c(=O)n1-c1ccc(F)cc1F, the GI50 [1] is reported as 3.03 µM, the TGI [1] is reported as 9.67 µM and the GI50 [54] is reported as 1.19 µM. It also gave a TGI [54] of 2.92 µM, a GI50 [2] of 2.93 µM and a TGI [2] of 19.8 µM. For the same compound, the GI50 [3] was 2.52 µM, the TGI [3] was 8.42 µM and the GI50 [4] was 1.91 µM. For the same compound, the TGI [4] was 4.98 µM, the GI50 [5] was 1.8 µM and the TGI [5] was 6.6 µM. It also gave a GI50 [6] of 3.24 µM, a TGI [6] of 19.2 µM and a GI50 [7] of 3.39 µM. The TGI [7] was 13.1 µM, the GI50 [55] was 3.57 µM and the TGI [55] was 58.5 µM. For the same compound, the GI50 [8] was 1.98 µM, the TGI [8] was 8.1 µM and the GI50 [9] was 3.23 µM. The TGI [9] was 13.9 µM, the GI50 [10] was 2.14 µM and the TGI [10] was 5.2 µM. For the same compound, the GI50 [11] was 2.71 µM, the TGI [11] was 11.4 µM and the GI50 [56] was 2.04 µM. For the same compound, the TGI [56] was 5.12 µM, the GI50 [12] was 2.16 µM and the TGI [12] was 6.09 µM. For the same compound, the GI50 [13] was 0.7 µM, the TGI [13] was 3.78 µM and the GI50 [14] was 2.04 µM. The TGI [14] was 6.55 µM, the GI50 [15] was 3.4 µM and the TGI [15] was 15.4 µM. The GI50 [16] was 2.07 µM, the TGI [16] was 33.2 µM and the GI50 [17] was 2.56 µM. The TGI [17] was over 100 µM, the GI50 [18] was 2.51 µM and the TGI [18] was 6.8 µM. For the same compound, the GI50 [19] was 2.51 µM, the TGI [19] was 10.9 µM and the GI50 [20] was 1.71 µM. It also gave a TGI [20] of 5.88 µM, a GI50 [21] of 1.94 µM and a TGI [21] of 5.89 µM. The GI50 [22] was 2.38 µM, the TGI [22] was 49.1 µM and the GI50 [23] was 1.89 µM. It also gave a TGI [23] of 6.01 µM, a GI50 [24] of 2.87 µM and a TGI [24] of 9.18 µM. The GI50 [26] was 2.39 µM, the TGI [26] was 6.88 µM and the GI50 [27] was 2.41 µM. The TGI [27] was 12.7 µM, the GI50 [28] was 2.14 µM and the TGI [28] was 7.94 µM. It also gave a GI50 [29] of 2.8 µM, a TGI [29] of 12.8 µM and a GI50 [30] of 2.65 µM. It also gave a TGI [30] of 10.2 µM, a GI50 [31] of 2.64 µM and a TGI [31] of 13.4 µM. For the same compound, the GI50 [32] was 2.67 µM, the TGI [32] was 13 µM and the GI50 [33] was 2.07 µM. The TGI [33] was 8.97 µM, the GI50 [34] was 3.96 µM and the TGI [34] was over 100 µM. It also gave a GI50 [35] of 2.86 µM, a TGI [35] of 13.2 µM and a GI50 [36] of 2.24 µM. The TGI [36] was 6.94 µM, the GI50 [57] was 1.49 µM and the TGI [57] was 4.83 µM. The GI50 [37] was 2.44 µM, the TGI [37] was 6.09 µM and the GI50 [38] was 2.86 µM. It also gave a TGI [38] of 27.1 µM, a GI50 [39] of 1.87 µM and a TGI [39] of 3.74 µM. The GI50 [40] was 2.79 µM, the TGI [40] was 9.51 µM and the GI50 [58] was 2.15 µM. It also gave a TGI [58] of 5.73 µM, a GI50 [41] of 1.76 µM and a TGI [41] of 6.25 µM. For the same compound, the GI50 [42] was 1.53 µM, the TGI [42] was 3.03 µM and the GI50 [43] was 1.16 µM. It also gave a TGI [43] of 4.17 µM, a GI50 [44] of 2.36 µM and a TGI [44] of 8.91 µM. It also gave a GI50 [45] of 2.63 µM, a TGI [45] of over 100 µM and a GI50 [46] of 1.26 µM. The TGI [46] was 3.96 µM, the GI50 [47] was 3.02 µM and the TGI [47] was over 100 µM. The GI50 [48] was 2.73 µM, the TGI [48] was 11.6 µM and the GI50 [59] was 1.99 µM. For the same compound, the TGI [59] was 6 µM, the GI50 [49] was 4.43 µM and the TGI [49] was 10.6 µM. It also gave a GI50 [50] of 2.64 µM, a TGI [50] of 19 µM and a GI50 [51] of 2.01 µM. It also gave a TGI [51] of 6.12 µM, a GI50 [52] of 1.31 µM and a TGI [52] of 4.19 µM. For the same compound, the GI50 [53] was 1.48 µM and the TGI [53] was 5.71 µM.
